The text below walks through data of patent publication US6193954A, “Formulations for pulmonary delivery of dopamine agonists” (Abbott Laboratories, priority 1997, dated 2001).

Each structure is given as a SMILES string. Where a name gives a salt, the structure may show the parent alone.

A short description of data set [1]: Bioavailability of MDI compositions in dogs, inhalation vs intravenous (plasma diol). In kind it is in vivo, beagle dog. The conditions noted are these: dog.
Description: The aerosol sprays were delivered anteriorly via a tracheal stoma in each subject animal (beagle dog).
Data set [2] is described as follows: Intratracheal administration of liquid formulation to tracheotomized dogs. In kind it is in vivo. The settings on record: 0.1 mg/kg (approximately 0.5 ml), mannitol/water solution. As to the method:
The viscosity of the administered solution was similar to water and the dose was squirted into the tube via pressure from a syringe filled with the liquid formulation. This formlation would not be administered through nasal or mouth means.
The solution used in the intratracheal administration contained the following:
Compound of example 1 6.9 mg/ml
with water for Injection as the solvent.
The above percentages may be varied by one of ordinary skill in the art to provide various dosages and/or ratios of the above excipients or compounds.

Data set [3] is described as follows: Dispersion quality of MDI formulations (visual suspension quality after 24 hours). In kind it is physicochemical. The conditions noted are these: HFC-134a. The protocol:
A determination of the dispersion quality of several MDI formulations prepared with HFA-134a was conducted as follows: Pluronic® L44 (BASF Corp., Parsippany, N.J.), drug and excipients being formulated were combined in the amounts shown in appropriate transparent aerosol containers (vials). The vials were crimped using a 100 μL Valois metered valve and charged with approximately 10 mL of HFC-134a. The container was shaken for about 30 minutes to blend the ingredients. The dispersion quality in each preparation was evaluated visually after 24 hours using the following criteria:
Poor: Phase separation; top phase clear, bottom phase containing solids
Fair: Partial phase separation; cloudiness in the top phase
Good: Grainy appearance; no phase separation
Excellent: Milky homogeneous appearance; no phase separation

With `CCCc1cc2c(s1)CN[C@@H]1CCc3cc(OC(C)=O)c(OC(C)=O)cc3[C@@H]21` [Compound of Example 1, (5aR-trans)-4,5,6,7,11b-hexahydro-2-propylbenzo[f]thieno[2,3-c]quinoline-9,10-diol, diacetate (ester) hydrochloride], the “lung absorption following inhalation delivery vs I.V. administration” value in data set [1] (inhalation) was “occurs more efficiently than I.V. administration”. Besides, in data set [1] (suspended in HFC-134a), the “absorption upon delivery to the lungs” value was “well absorbed upon delivery to the lungs”. Also, the “delivery on intratracheal administration” value in data set [2] is recorded as “effectively delivered”. The “Suspension Quality” value was “good” in data set [3] (20 mg drug, 0 Pluronic L44, 0 tocopherol acetate); “good” in data set [3] (20 mg drug, 3 Pluronic L44, 0 tocopherol acetate); “good” in data set [3] (20 mg drug, 3 Pluronic L44, 2 mg tocopherol acetate); “good” in data set [3] (20 mg drug, 5 Pluronic L44, 0 tocopherol acetate); “good” in data set [3] (20 mg drug, 5 Pluronic L44, 2 mg tocopherol acetate); “good” in data set [3] (40 mg drug, 0 Pluronic L44, 0 tocopherol acetate). In addition, the “Suspension Quality” value in data set [3] (40 mg drug, 3 Pluronic L44, 0 tocopherol acetate) is on record as “good”; in data set [3] (40 mg drug, 3 Pluronic L44, 2 mg tocopherol acetate) it was “good”; in data set [3] (40 mg drug, 5 Pluronic L44, 0 tocopherol acetate) it was “good”; in data set [3] (40 mg drug, 5 Pluronic L44, 2 mg tocopherol acetate) it was “good”.
